The values that follow come from ChEMBL document CHEMBL1135384, “Convenient synthesis and evaluation of enzyme inhibitory activity of several N-alkyl-, N-phenylalkyl, and cyclic isourea derivatives of 5a-carba-alpha-DL-fucopyranosylamine” (Bioorg Med Chem Lett, 2002).

pIC50: −log10 of the molar value.

The target of the first experiment is T1, Beta-galactosidase (Bos taurus, UniProt Q58D55).
T1 sequence (Q58D55 whole entry): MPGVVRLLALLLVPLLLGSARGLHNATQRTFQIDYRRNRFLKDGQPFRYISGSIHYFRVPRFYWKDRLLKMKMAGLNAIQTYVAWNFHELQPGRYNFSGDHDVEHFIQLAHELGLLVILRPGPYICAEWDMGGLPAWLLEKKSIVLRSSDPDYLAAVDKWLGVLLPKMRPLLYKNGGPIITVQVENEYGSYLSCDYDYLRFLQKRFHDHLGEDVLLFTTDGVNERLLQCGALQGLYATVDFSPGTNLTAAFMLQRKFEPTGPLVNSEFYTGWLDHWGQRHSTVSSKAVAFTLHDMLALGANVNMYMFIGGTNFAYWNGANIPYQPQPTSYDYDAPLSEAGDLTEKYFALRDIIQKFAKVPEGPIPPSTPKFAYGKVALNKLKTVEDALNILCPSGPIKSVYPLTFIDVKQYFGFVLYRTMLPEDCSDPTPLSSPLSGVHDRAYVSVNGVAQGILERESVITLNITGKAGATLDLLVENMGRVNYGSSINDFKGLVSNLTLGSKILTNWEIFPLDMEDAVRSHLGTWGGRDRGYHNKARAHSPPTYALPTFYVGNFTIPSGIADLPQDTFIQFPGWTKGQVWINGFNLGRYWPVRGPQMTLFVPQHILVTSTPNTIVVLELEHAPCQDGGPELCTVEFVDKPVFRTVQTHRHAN
Kind of experiment: Inhibitory activity against Beta-galactosidase in bovine liver was determined;NI means no inhibition.
As to `CCNC1CC(C)[C@@H](O)[C@H](O)[C@H]1O` (some centres undefined), the IC50 entry is reported as “Not Active”.

On to `CC1CC2N=C(NCc3ccccc3)O[C@@H]2[C@@H](O)[C@@H]1O` (some centres undefined), for which the IC50 entry is on record as “Not Active”.

On to `CCCCNC1CC(C)[C@@H](O)[C@H](O)[C@H]1O` (some centres undefined), for which the IC50 result is reported as “Not Active”.

In the case of `CC1CC2N=C(Nc3ccccc3)O[C@@H]2[C@@H](O)[C@@H]1O` (some centres undefined), the IC50 result is “Not Active”.

In the case of `CCCCNC1=NC2CC(C)[C@@H](O)[C@H](O)[C@H]2O1` (some centres undefined), the IC50 entry is on record as “Not Active”.

Turning to `C[C@@H]1C[C@@H](N)C(O)C(O)[C@@H]1O` (single isomer, unassigned), the IC50 result is reported as “Not Active”.

For `C[C@@H]1C[C@H](N)C(O)C(O)[C@@H]1O` (single isomer, unassigned), the IC50 result is “Not Active”.

As for `C[C@@H]1NC[C@@H](O)[C@H](O)[C@@H]1O` [DEOXYFUCONOJIRIMYCIN], the IC50 entry is “Not Active”.

The next experiment deals with T1, Beta-galactosidase. Kind of experiment: Inhibitory activity against Beta-galactosidase in bovine liver was determined. Format: tissue-based.
The pIC50 is −log10 of the IC50, conventionally taken in molar units. Read a low pIC50 as a high IC50. In turn, `CCCCCCCCNC1CC(C)[C@@H](O)[C@H](O)[C@H]1O` (some centres undefined) gave a pIC50 of 4.43.
